We go through 2 molecules from US20080300221A1, “Contact Lens Care Composition” (priority 2005, published 2008).

One assay concerns cysts of A. castellani. As to the kind of experiment: Susceptibility test for Acanthamoeba cysts (viable cells on non-nutrient agar plates after soaking in contact lens solution). In kind it is cell-based, A. castellanii. Also on record: key: +: viable cells; −: no viable cells. As to conditions: after 8 hours soaking; 10^3 cysts; plates incubated at 30° C. for 14 days; Miltefosine alone tested at 80 μM. The method, then: The activity of various multi-purpose contact lens solutions (for cleaning, rinsing, storing and disinfecting a contact lens while the lens is not worn) was tested against cysts of A. castellani.
Contact lens disinfection solutions tested (Table 1) were purchased from local retail stores. In case of the H2O2 based systems, neutralization of the 3% hydrogen peroxide is achieved within 6 hours by a catalytic platinum disk which is located in the contact lens storage case according to the manufacturer's instructions. Miltefosine was dissolved in 5% Ethanol (2 mM stock solution) and tested at 80 μM in Acanthamoeba medium (PYG) or in contact lens disinfection medium.
A. castellanii, was isolated from a patient suffering from a severe Acanthamoeba keratitis. Isolation was achieved by inoculating corneal epithelium onto non-nutrient agar plates covered with a 48-h-old culture of Escherichia coli. The isolate was cloned by transferring a single cyst onto a fresh plate with a micromanipulator. Axenisation was achieved by harvesting cysts from parallel cultures and incubating them in 3% HCl overnight in order to eliminate coexisting bacteria. […] The cysts were harvested by centrifugation (500 g/7 minutes), resuspended in sterile 0.9% NaCl and counted in a BurkerTurk haemocytometer. […]

A further assay concerns Acanthamoeba. The settings on record: cited from earlier work.

Molecules are shown by their SMILES.

Take `CCCCCCCCCCCCCCCCOP(=O)([O-])OCC[N+](C)(C)C` [Miltefosine, 1-hexadecylphosphorylcholine]: the “Viable Acanthamoeba cells after disinfection with commercially available disinfectants” value in the assay on cysts of A. castellani is reported as “−”. As to `[H]/N=C(\N/C(=N/[H])NCCCCCCNC(=N)NC(=N)Nc1ccc(Cl)cc1)Nc1ccc(Cl)cc1` [chlorhexidine], the “Effectiveness against Acanthamoeba among contact lens disinfectants” value with Acanthamoeba is “most effective”.
